Measured values as given in US20180221329A1, “CIS- AND TRANS-SUFFRUTICOSOL D AS THERAPEUTIC AGENTS” (MIDDLE TENNESSEE STATE UNIVERSITY, priority 2015, published 2018).
Like-named read-outs stand apart in the source and are kept apart here.

Experiments:
A549 cells = assay: Multi-parameter cytotoxicity assay (HCS); type: cell-based, human; details: 24 h; for mitochondrial membrane potential: all tested concentrations
Method: FIGS. 5A-D depict multi-parameter analysis of cytotoxicity induced by cis- and trans-suffruticosol D in A549 cells. A549 cells were treated with various concentrations of cis- or trans-suffruticosol D for 24 h, then stained with three dyes simultaneously (Hoechst, cell permeability dye, and mitochondrial membrane potential dye). Cells treated with vehicle only served as a negative control and cells treated with 10 μM valinomycin served as a positive control.
Multi-parameter cytotoxicity assay. HCS analysis was used to measure nuclear morphology, cell membrane permeability, and mitochondrial membrane potential changes, the three parameters associated with cytotoxicity. A549 cells were treated with different concentrations of cis- or trans-suffruticosol D for 24 h. The cells were then fixed and stained with a warm solution containing Hoechst dye, Membrane Permeability Dye, and Mitochondrial membrane Potential Dye (Thermo Scientific, Waltham, Mass., USA). Cells were imaged using an Arrayscan VTI HCS reader (Thermo Scientific, Waltham, Mass., USA). Data on nuclear size, cell permeability, and mitochondria membrane potential were collected and analyzed using vHCS Scan software.

[1] = tested on: NF-κB p65 nuclear translocation; assay: NF-κB nuclear translocation assay (HCS); type: cell-based, human; details: 4 h, then TNF-α 30 min, A549
Method: FIGS. 6A and 6B depict inhibition of NF-κB translocation by cis- and trans-suffruticosol D in A549 cells. A549 cells were treated with various concentrations of cis- or trans-suffruticosol D for 4 h and then stimulated with […] TNF-α for 30 min. Cells treated with TNF-α alone or the vehicle only served as controls. The NF-κB translocation index was measured by the fluorescent intensity difference between the nucleus and cytoplasm.
NF-κB nuclear translocation assay. A Multiplexed NF-κB activation HCS Kit (Thermo Scientific, Waltham, Mass., USA) was used to assess NF-κB nuclear translocation. A549 cells were pre-treated with different concentrations of cis- or trans-suffruticosol D for 4 h, then 10 ng/mL of TNF-α was added to the cells for an additional 30 min. After treatment, cells were fixed and permeabilized prior to detection. NF-κB distribution was detected by adding NF-κB p65 primary antibodies and then staining with a secondary antibody conjugated with DyLight 549 and Hoechst dye (Thermo Scientific, Waltham, Mass., USA). […] Cells were imaged using an Arrayscan VTI HCS reader (Thermo Scientific, Waltham, Mass., USA). Data on the mean difference of NF-κB fluorescent intensity between the nuclear and cytoplasmic areas were collected and analyzed by vHCS Scan software.

[2] = tested on: A549 (lung), BT20 (breast), MCF7 (breast) and U2OS (osteosarcoma) cancer cell lines; assay: Cell proliferation assay, range over the four cancer cell lines; type: cell-based, human; details: for IC50: A549, BT20, MCF7, U2OS, 48 h, read-out: IC50 values in all four cancer cell lines (range); for selectivity (range over cancer cell lines): cancer cell lines versus normal HMEC
Method: (§1) Cell culture. Four human cancer cell lines including A549 (lung carcinoma), BT20 (estrogen receptor-negative human breast adenocarcinoma), MCF-7 (estrogen receptor-positive human breast adenocarcinoma) and U2OS (human osteosarcoma) were purchased from American Type Culture Collection (ATCC). An A549 cell line that stably expresses Green Fluorescent Protein (GFP) was purchased from Cell BioLabs Inc. (San Diego, Calif., USA). A549, A549-GFP and BT20 cells were cultured in RPMI 1640 media (Sigma-Aldrich, St. Louis, Mo., USA), MCF7 cells were cultured in DMEM medium (ATCC, Manassas, Va., USA), and U20S cells were cultured in McCoy's 5A medium (ATCC, Manassas, Va., USA). As a control, HMEC cells (primary human mammary breast epithelial cells) were purchased from ATCC and cultured in McCoy's 5A medium. All medium contained 10% FBS (Sigma-Aldrich, St. Louis, Mo., USA) and 1% streptomycin and penicillin (Sigma-Aldrich, St. Louis, Mo., USA). These cells were incubated in a humid environment with 5% CO2 at 37° C.
(§2) Cell proliferation assay. The resazurin reduction reagent AlamarBlue (Invitrogen, Frederick, Md., USA) was used to evaluate the cytotoxicity of the compounds. Cells were plated at a density of 5×10^3 cells per well in 96-well microplates with 100 μl culture medium, and were allowed to attach for 16 h prior to treatment. Next, all the medium was replaced with medium containing the cis- or trans-suffruticosol D compounds at seven different concentrations: 320, 100, 32, 10, 3.2, 1.0, and 0.32 μM. The cells were placed in an incubator for 48 h at 37° C. Cells that were treated with medium-containing vehicle (1% DMSO) only serve as negative control. Subsequently, AlamarBlue solution was added to the medium and the cells were incubated in the CO2 incubator for 1 h. The fluorescent intensity change of the dye was measured at Ex 555 nm and Em 590 nm using a plate reader (Molecular Devices, Sunnyvale, Calif., USA). The cytotoxicity was examined by determining by IC50, the dose that inhibited 50% of cell growth, using GraphPad Prism software (GraphPad Software, La Jolla, Calif., USA).

[3] = tested on: MCF-7 (estrogen receptor-positive human breast adenocarcinoma) cells; assay: Cell proliferation assay (AlamarBlue), MCF-7; type: cell-based; details: for IC50: MCF-7, 48 h, AlamarBlue; for Selectivity: MCF-7 versus normal HMEC cells
Method: as §1, §2
(§3) Table 1. IC50 values of cis- and trans-suffruticosol D in selected cancer and normal cell lines. Cells were treated with various concentrations of cis- or trans-suffruticosol D for 48 h, and the viability of cells was evaluated with AlamarBlue dye.

[4] = tested on: HMEC cells (primary human mammary breast epithelial cells); assay: Cell proliferation assay (AlamarBlue), normal HMEC; type: cell-based; details: 48 h
Method: as §1, §2, §3

[5] = tested on: U2OS (human osteosarcoma) cells; assay: Cell proliferation assay (AlamarBlue), U2OS; type: cell-based; details: for Selectivity: U2OS versus normal HMEC cells; for IC50: U2OS, 48 h, AlamarBlue
Method: as §1, §2, §3

With `Oc1ccc(C=Cc2c3c(cc4c2[C@@H](c2cc(O)cc(O)c2)[C@H](c2ccc(O)cc2)O4)O[C@H](c2ccc(O)cc2)[C@@H]3c2cc(O)cc(O)c2)cc1` [cis-suffruticosol D] the mitochondrial membrane potential (A549 cells) was “significant decrease”, the cell membrane permeability (A549 cells; various concentrations) was “no significant change” and the nuclear size (A549 cells; various concentrations) was “no significant change”. For the same molecule, the “inhibition of NF-κB activation (nuclear translocation index)” value ([1]; 100 μM only) was “significant inhibition”, the IC50 [2] was 13.4 to 46.8 µM and the “selectivity (range over cancer cell lines)” value [2] was 9.2-14.7 fold. The IC50 ([3]; listed as cis-SD) was 46.8 ± 3.3 µM, the Selectivity ([3]; listed as cis-SD) was 5.8 and the IC50 [4] was 146 µM. It also gave an IC50 ([4]; listed as cis-SD) of 269.5 ± 2.2 µM, a Selectivity ([5]; listed as cis-SD) of 11 and an IC50 ([5]; listed as cis-SD) of 24.6 ± 4.4 µM.

For `Oc1ccc(/C=C/c2c3c(cc4c2[C@@H](c2cc(O)cc(O)c2)[C@H](c2ccc(O)cc2)O4)O[C@H](c2ccc(O)cc2)[C@@H]3c2cc(O)cc(O)c2)cc1` [trans-suffruticosol D], the cell membrane permeability (A549 cells; 100 μM) was “increased cell membrane permeability”, the nuclear size (A549 cells; 100 μM) was “nuclei shrinkage” and the mitochondrial membrane potential (A549 cells) was “significant decrease”. For the same molecule, the “inhibition of NF-κB activation (nuclear translocation index)” value ([1]; all the tested concentrations) was “significant inhibition”, the IC50 [2] was 9.93 to 20.8 µM and the IC50 ([2]; Homo sapiens) was 9.93 to 15.8 µM. For the same molecule, the “selectivity (range over cancer cell lines)” value [2] was 5.8-20 fold, the IC50 ([3]; listed as trans-SD) was 15.8 ± 1.6 µM and the Selectivity ([3]; listed as trans-SD) was 9.3. For the same molecule, the IC50 ([4]; listed as trans-SD) was 146 ± 2.7 µM, the IC50 ([4]; Homo sapiens, HMEC) was 270 µM and the Selectivity ([5]; listed as trans-SD) was 12.9. The IC50 ([5]; listed as trans-SD) was 11.3 ± 2.3 µM.
